Among the data in US20170000133A1, “BENZOXABOROLE FUNGICIDES” (SYNGENTA PARTICIPATIONS AG, priority 2013, published 2017) are inhibition, pest or weed control and melting point values, retold here.

The test system of one series is Pythium ultimum. The experiment in a line: Pythium ultimum / liquid culture (seedling damping off). The class given is cell-based. The following applies: Globisporangium ultimum; 200 ppm; potato dextrose broth, 24° C., 2-3 days after application; read-out: disease control (inhibition of growth determined photometrically).
Another series deals with Phytophthora infestans. The experiment in a line: whole plant or invertebrate. Format: in vivo. The following applies: in Solanum lycopersicum, foliar, read-out: disease control.
In series [1] the test system is Glomerella lagenarium (Colletotrichum lagenarium). The experiment in a line: Glomerella lagenarium (Colletotrichum lagenarium) / liquid culture (anthracnose). The following applies: Colletotrichum orbiculare, PDB potato dextrose broth, 24° C., 3-4 days after application, read-out: disease control (inhibition of growth measured photometrically). Format: cell-based. The procedure, abridged:
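Conidia of G. lagenarium from cryogenic storage were suspended in potato dextrose broth and added to test compound in DMSO at 200 ppm. Plates were incubated at 24° C, and growth inhibition was read photometrically 3-4 days after application.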

The subject of series [2] is Monographella nivalis (Microdochium nivale). The experiment in a line: Monographella nivalis (Microdochium nivale) / liquid culture (foot rot cereals). The following applies: PDB potato dextrose broth, 24° C., 4-5 days after application, read-out: disease control (inhibition of growth determined photometrically). Format: cell-based.
The test system of another series is Plasmopara viticola. The experiment in a line: whole plant or invertebrate. Format: in vivo. The following applies: foliar, read-out: disease control.
For a further series, the system named is Gaeumannomyces graminis. The experiment in a line: Gaeumannomyces graminis / liquid culture (take-all of cereals). Format: cell-based. The following applies: PDB potato dextrose broth, 24° C., 4-5 days after application, read-out: disease control (inhibition of growth determined photometrically). The essentials: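 Cryo-stored mycelial fragments in potato dextrose broth exposed to compound in DMSO at 200 ppm. Incubated at 24 °C; growth inhibition read photometrically 4–5 days after application.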

The test system of the next series is Fusarium culmorum. The experiment in a line: microbe, parasite or virus in culture. The class given is cell-based. The following applies: read-out: disease control (inhibition of growth determined visually).
The test system of series [3] is Mycosphaerella graminicola (Septoria tritici). The experiment in a line: Mycosphaerella graminicola (Septoria tritici) / liquid culture (Septoria blotch). Format: cell-based. The following applies: Zymoseptoria tritici, PDB potato dextrose broth, 24° C., 4-5 days after application, read-out: disease control (inhibition of growth determined photometrically). The essentials: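 Conidia from cryostorage were suspended in potato dextrose broth and added to test compound in DMSO at 200 ppm in microtiter wells. Plates were incubated at 24° C and growth inhibition measured photometrically 4-5 days after application.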

Series [4] relates to Thanatephorus cucumeris (Rhizoctonia solani). The experiment in a line: Thanatephorus cucumeris (Rhizoctonia solani) / liquid culture (foot rot, damping-off). Format: cell-based. The following applies: PDB potato dextrose broth, 24° C., 3-4 days after application, read-out: disease control (inhibition of growth determined photometrically). The procedure, abridged:
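Mycelial fragments from fresh liquid culture were suspended in potato dextrose broth and added to compound in DMSO at 200 ppm. After 3-4 days at 24 °C, growth inhibition was measured photometrically.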

For series [5], the system named is Mycosphaerella arachidis (Cercospora arachidicola). The experiment in a line: Mycosphaerella arachidis (Cercospora arachidicola) / liquid culture (early leaf spot). The class given is cell-based. The following applies: PDB potato dextrose broth, 24° C., 4-5 days after application, read-out: disease control (inhibition of growth determined photometrically). The procedure, abridged: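 Conidia from cryogenic storage mixed into potato dextrose broth and added to compound at 200 ppm in DMSO. Incubation at 24° C.; growth inhibition read photometrically 4-5 days after application.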

Structures are written as SMILES.

Broadly, the inhibition is the share of the control response that was lost under treatment. Consider `O=C(NCc1ccccc1C(F)(F)F)c1cc2c(cc1F)COB2O` [Compound 132], for which the inhibition at 200 ppm (in the series on Pythium ultimum; in series [1]; in series [2]; in the series on Gaeumannomyces graminis) was at least 80% throughout. Moreover, the pest or weed control at 200 ppm in the series with Phytophthora infestans and in the series with Plasmopara viticola was at least 80% each time.
For `O=C(NCc1ccccc1OC(F)(F)F)c1cc2c(cc1F)COB2O` [Compound 128], the inhibition at 200 ppm in the series on Pythium ultimum is at least 80%. Moreover, the pest or weed control at 200 ppm in the series on Phytophthora infestans is at least 80%.
With `C#CC1(NC(=O)c2cc3c(cc2F)COB3O)CCCCC1` [Compound 90], the inhibition at 200 ppm (in the series on Pythium ultimum; in series [2]) was at least 80% throughout. In the series with Phytophthora infestans, the pest or weed control at 200 ppm was at least 80%.
As to `O=C(NCc1ccc2c(c1)OCCO2)c1cc2c(cc1F)COB2O` [Compound 121], the inhibition at 200 ppm in the series on Pythium ultimum is at least 80%. Moreover, the pest or weed control at 200 ppm with Phytophthora infestans and in the series with Plasmopara viticola was at least 80% in each case.
With `O=C(NCc1ccc2c(c1)OCCO2)c1cc2c(cc1Cl)COB2O` [Compound 87], the inhibition at 200 ppm in the series with Pythium ultimum was at least 80%. The pest or weed control at 200 ppm in the series on Phytophthora infestans was at least 80%.
`N#CCCOC(=O)c1cc2c(cc1Cl)COB2O` [Compound 231]: the inhibition at 200 ppm with Pythium ultimum is at least 80%. For the same molecule, the pest or weed control at 200 ppm in the series on Phytophthora infestans was at least 80%.
Turning to `COC(=O)c1cc2cc(NC(=O)c3cc4c(cc3F)COB4O)ccc2s1` [Compound 163], the inhibition at 200 ppm in the series with Pythium ultimum was at least 80%. The pest or weed control at 200 ppm in the series with Phytophthora infestans is at least 80%.
Regarding `O=C(NCc1cccc(Cl)c1)c1cc2c(cc1F)COB2O` [Compound 119], the inhibition at 200 ppm with Pythium ultimum is at least 80%. Moreover, the pest or weed control at 200 ppm in the series with Phytophthora infestans and in the series on Plasmopara viticola was at least 80% throughout.
For orientation: melting point means the temperature of the solid-liquid transition. `C[Si](C)(C)COC(=O)c1cc2c(cc1F)COB2O` [Compound 429] came in with a melting point of 122 to 124 °C. The inhibition at 200 ppm with Pythium ultimum is at least 80%. For the same molecule, in the series on Fusarium culmorum, the inhibition at 200 ppm was at least 80%. Also, the inhibition at 200 ppm in series [1] is at least 80%. Also, in series [2], the inhibition at 200 ppm was at least 80%. Also, the inhibition at 200 ppm in series [3] was at least 80%. For the same molecule, the pest or weed control at 200 ppm in the series on Plasmopara viticola was at least 80%. Besides, in [4], the inhibition at 200 ppm was at least 80%. Besides, the inhibition at 200 ppm in the series with Gaeumannomyces graminis was at least 80%.
For `COc1ccc(CNC(=O)c2cc3c(cc2F)COB3O)cc1` [Compound 124], in the series with Pythium ultimum, the inhibition at 200 ppm is at least 80%. Further, the pest or weed control at 200 ppm in the series on Phytophthora infestans and in the series with Plasmopara viticola was at least 80% each time.
As for `O=C(Nc1cc(-c2ccccc2)[nH]n1)c1cc2c(cc1F)COB2O` [Compound 182], in the series with Pythium ultimum, the inhibition at 200 ppm was at least 80%. Also, the pest or weed control at 200 ppm in the series with Phytophthora infestans and in the series on Plasmopara viticola was at least 80% each time.
Take `O=C(NCCSCc1ccccc1)c1cc2c(cc1Cl)COB2O` [Compound 59]: the inhibition at 200 ppm in the series with Pythium ultimum is at least 80%. The pest or weed control at 200 ppm in the series on Phytophthora infestans is at least 80%.
In the case of `COc1ccc(-c2ccccc2)cc1NC(=O)c1cc2c(cc1Cl)COB2O` [Compound 129], the inhibition at 200 ppm (in the series with Pythium ultimum; in [2]; in series [3]; with Gaeumannomyces graminis) was at least 80% throughout. The pest or weed control at 200 ppm with Phytophthora infestans was at least 80%.
In the case of `O=C(Oc1ccccn1)c1cc2c(cc1F)COB2O` [Compound 442], the melting point fell in the range of 213 to 215 °C. Further, the inhibition at 200 ppm with Pythium ultimum is at least 80%. In series [2], the inhibition at 200 ppm was at least 80%. In addition, the inhibition at 200 ppm in series [4] was at least 80%.
On to `O=C(NCCSCc1ccccc1)c1cc2c(cc1F)COB2O` [Compound 84], for which, in the series with Pythium ultimum, the inhibition at 200 ppm was at least 80%. The pest or weed control at 200 ppm with Phytophthora infestans and in the series with Plasmopara viticola was at least 80% each time.
As to `O=C(OCC(F)F)c1cc2c(cc1Cl)COB2O` [Compound 236], the inhibition at 200 ppm (with Pythium ultimum; in series [1]; in [2]; in series [3]; with Gaeumannomyces graminis) was at least 80% each time. Also, in the series with Phytophthora infestans, the pest or weed control at 200 ppm was at least 80%.
For the molecule `O=C(NCC1CCCO1)c1cc2c(cc1F)COB2O` (stereo not shown) [Compound 94], the inhibition at 200 ppm in the series with Pythium ultimum was at least 80%. The pest or weed control at 200 ppm with Phytophthora infestans was at least 80%.
Regarding `CC(C#N)OC(=O)c1cc2c(cc1Cl)COB2O` (stereo not shown) [Compound 193], the inhibition at 200 ppm in the series with Pythium ultimum was at least 80%. Further, the pest or weed control at 200 ppm in the series with Phytophthora infestans was at least 80%.
In turn, `CC(=O)C(C)OC(=O)c1cc2c(cc1Cl)COB2O` (stereo not shown) [Compound 451] registered a melting point of 102 to 104 °C. In addition, in [5], the inhibition at 200 ppm was at least 80%. Further, in the series with Pythium ultimum, the inhibition at 200 ppm was at least 80%. In series [2], the inhibition at 200 ppm was at least 80%. The inhibition at 200 ppm in series [3] is at least 80%. The pest or weed control at 200 ppm with Plasmopara viticola was at least 80%. Also, the inhibition at 200 ppm with Gaeumannomyces graminis was at least 80%.
Take `CC(=O)c1sc(NC(=O)c2cc3c(cc2F)COB3O)nc1C` [Compound 181]: the inhibition at 200 ppm (with Pythium ultimum; in series [2]) was at least 80% throughout. Also, the pest or weed control at 200 ppm in the series with Phytophthora infestans was at least 80%.
With `O=C(NCc1ccc(Cl)nc1)c1cc2c(cc1F)COB2O` [Compound 138], the inhibition at 200 ppm in the series on Pythium ultimum is at least 80%. Also, the pest or weed control at 200 ppm with Phytophthora infestans is at least 80%.
`CCOC(=O)C1CC=CCC1NC(=O)c1cc2c(cc1F)COB2O` (stereo not shown) [Compound 78]: the inhibition at 200 ppm in the series on Pythium ultimum and with Gaeumannomyces graminis was at least 80% in each case. For the same molecule, in the series with Phytophthora infestans, the pest or weed control at 200 ppm was at least 80%.
Turning to `O=C(OCc1ccc(C(F)(F)F)nc1)c1cc2c(cc1Cl)COB2O` [Compound 217], the inhibition at 200 ppm (with Pythium ultimum; in series [1]; in series [2]; in the series with Gaeumannomyces graminis) was at least 80% in each case. Moreover, the pest or weed control at 200 ppm in the series with Phytophthora infestans is at least 80%.
Take `O=C(NCc1ccc(Oc2ccccc2)cc1)c1cc2c(cc1F)COB2O` [Compound 136]: the melting point was 178 to 180 °C. Moreover, in series [5], the inhibition at 200 ppm was at least 80%. Also, the inhibition at 200 ppm in the series with Pythium ultimum is at least 80%. The inhibition at 200 ppm in series [1] is at least 80%. Further, the inhibition at 200 ppm in series [2] is at least 80%. Also, the inhibition at 200 ppm in [3] is at least 80%.
With `COC(=O)C(C)OC(=O)c1cc2c(cc1Cl)COB2O` (stereo not shown) [Compound 206], the inhibition at 200 ppm (in the series with Pythium ultimum; in series [4]) was at least 80% in each case. Also, the pest or weed control at 200 ppm with Phytophthora infestans was at least 80%.
For the molecule `O=C(OCCOc1ccc(Cl)cc1)c1ccc2c(c1)B(O)OC2` [Compound 352], the melting point was 122 to 124 °C. Also, the inhibition at 200 ppm in series [5] was at least 80%. Besides, the inhibition at 200 ppm in the series with Pythium ultimum is at least 80%. The inhibition at 200 ppm in series [2] is at least 80%. The inhibition at 200 ppm in series [3] was at least 80%. The inhibition at 200 ppm in [4] was at least 80%. Moreover, the inhibition at 200 ppm in the series with Gaeumannomyces graminis was at least 80%.
Molecule `CC(C)c1ccc(NC(=O)c2cc3c(cc2F)COB3O)cc1` [Compound 146] displayed a melting point of 184 to 186 °C. Besides, the inhibition at 200 ppm in the series on Pythium ultimum was at least 80%. The inhibition at 200 ppm in the series on Fusarium culmorum was at least 80%. Further, in series [1], the inhibition at 200 ppm was at least 80%. Besides, the inhibition at 200 ppm in series [2] is at least 80%. The inhibition at 200 ppm in [3] is at least 80%.
Take `O=C(NCc1ccco1)c1cc2c(cc1F)COB2O` [Compound 144]: the melting point was in the range of 158 to 160 °C. For the same molecule, in [5], the inhibition at 200 ppm was at least 80%. In addition, the inhibition at 200 ppm with Pythium ultimum was at least 80%. Also, in series [1], the inhibition at 200 ppm is at least 80%. Moreover, the inhibition at 200 ppm in series [2] was at least 80%. Moreover, the inhibition at 200 ppm in [3] is at least 80%. In addition, in the series with Plasmopara viticola, the pest or weed control at 200 ppm is at least 80%. In addition, in the series on Gaeumannomyces graminis, the inhibition at 200 ppm is at least 80%.
